Patent US6355443B1, “4-(4-hydroxystyryl) pyridine-containing substrates for an analyte dependent enzyme activation system” (priority 1999, dated 2002)

Columns and labels:
[1] = target: T1, Horseradish peroxidase (HRP) conjugated wheat germ agglutinin (Armoracia rusticana, UniProt P00433); assay: Sensitive HRP localization using a 4-(4-hydroxystyryl) pyridine containing compound; settings: sections of mouse intestine; for fluorescence labeling of tissue sections after HRP-catalyzed deposition: HRP-conjugated wheat germ agglutinin 0.5 μg/ml, substrate 100 μg/ml, 10 min, 360 nm excitation/>400 nm emission
T1 construct: purchased Sigma; St. Louis, Mo
T1 sequence (P00433 31-338 limits assumed): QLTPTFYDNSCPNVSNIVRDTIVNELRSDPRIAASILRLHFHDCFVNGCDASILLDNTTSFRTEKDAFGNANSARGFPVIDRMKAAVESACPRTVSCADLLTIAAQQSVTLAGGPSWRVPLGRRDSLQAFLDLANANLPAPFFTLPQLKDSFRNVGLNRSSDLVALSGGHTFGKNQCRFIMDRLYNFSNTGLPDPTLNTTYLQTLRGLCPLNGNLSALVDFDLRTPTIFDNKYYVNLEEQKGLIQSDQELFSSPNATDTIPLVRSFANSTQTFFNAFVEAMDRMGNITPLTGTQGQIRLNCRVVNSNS
Procedure: Sections of paraffin-embedded mouse intestine were deparaffinized and non-specific binding sites blocked by treatment for thirty minutes in PBS-blocking buffer (PBS-BB; 0.1M phosphate buffered saline, pH 7.2; 1.0% bovine serum albumin, 0.2% non-fat powdered milk, and 0.3% Triton X-100). Horseradish peroxidase (HRP) conjugated wheat germ agglutinin (Sigma; St. Louis, Mo.) at a concentration of 0.5 μg/ml in PBS-BB was incubated on sections for one hour at room temperature. Control sections were incubated in PBS-BB alone. Sections were then washed in PBS (three X for five minutes each wash) and reacted for ten minutes at room temperature in a solution containing 4-(4-hydroxystyryl) pyridinium propylsulfonate (HPPS) (Molecular Biosciences; Boulder, Colo.) at 100 μg/ml in TSA Amplification Diluent, (NEN Life Science Products, Inc.; Boston, Mass.). Sections were then washed in PBS (three X for five minutes each wash), mounted in PBS:Glycerol (1:1) and coverslipped. Sections were viewed with a Zeiss Axioskop microscope equipped with epifluorescence and a filter set with excitation/emission characteristics of 360 nm peak excitation/>400 nm long pass emission. Photomicrographs were taken using a Zeiss MC100 camera system.

[2] = target: T1, Horseradish peroxidase (HRP) conjugated wheat germ agglutinin; assay: Stability of deposited fluorescent reaction product in aqueous vs non-aqueous mounting medium
Procedure: Sections of paraffin-embedded mouse intestine were deparaffinized and non-specific binding sites were blocked by treatment for thirty minutes in PBS-BB. HRP conjugated wheat germ agglutinin (Sigma), at a concentration of 0.5 μg/ml in PBS-BB, was incubated on sections for one hour at room temperature. Sections were then washed in PBS (three X for five minutes each wash) and were reacted for ten minutes at room temperature in a solution of 4-(4-hydroxystyryl) methylpyridinium tosylate (HMPT) (Molecular Biosciences) at 100 μg/ml in TSA Amplification Diluent (NEN Life Science Products, Inc.). Sections were then washed in PBS (three X for five minutes each wash) and either mounted in PBS:Glycerol (1:1) or dehydrated in graded ethanol solutions (0%, 70%, 95%, 100%, 100% three minutes each) and xylene (two X for three minutes each) mounted in Permount (a non-aqueous mounting medium; Fisher Scientific, Pittsburgh, Pa.) and coverslipped. The fluorescent signal intensity of slides mounted in aqueous (PBS:Glycerol) or non-aqueous (Permount) media was compared using a Zeiss Axioskop microscope equipped with epifluorescence and a 360 nm excitation/>400 nm emission filter set. Photomicrographs were taken using a Zeiss MC100 camera system and standard two second exposures.

Compound	concentration of conjugated wheat germ agglutinin used/required for wheat germ agglutinin localization [1] [µg/mL]	fluorescence labeling of tissue sections after HRP-catalyzed deposition [1]	fluorescence labeling of tissue sections after HRP-catalyzed deposition ([1]; listed as EPPS)	background signal / signal/noise ratio when mounted in non-aqueous media ([2]; Permount, non-aqueous)	localization of wheat germ agglutinin reactivity ([2]; aqueous and non-aqueous medium)	fluorescence in aqueous solution ([2]; section of mouse intestine, aqueous (FIG. 2A))	reaction product fluorescence in non-aqueous medium ([2]; section of mouse intestine, non-aqueous (FIG. 2B))	fluorescence intensity of reaction product in aqueous versus non-aqueous medium ([2]; sections of mouse intestine, PBS:Glycerol (aqueous) vs Permount (non-aqueous), two second exposures)
4-(4-hydroxystyryl) pyridinium propylsulfonate [HPPS]	0.5	intense HPPS fluorescence was localized to intestinal goblet cells	intense EPPS fluorescence localized to intestinal goblet cells					
C[n+]1ccc(C=Cc2ccc(O)cc2)cc1.Cc1ccc(S(=O)(=O)[O-])cc1 [HMPT, 4-(4-hydroxystyryl) methylpyridinium tosylate]				background signal is reduced resulting in a better signal/noise ratio	Strong wheat germ agglutinin reactivity was localized to the intestinal epithelium under both conditions	bright fluorescence in aqueous solution	bright reaction product in a non-aqueous medium	equally bright in aqueous (FIG. 2A) and non-aqueous (FIG. 2B) medium
